In patent US8318447B2, “Use of bitter taste receptor to screen for compounds that offset the bitter taste of chlorogenic lactone containing coffee compositions” (Senomyx Inc., priority 2005, dated 2012):

Columns and labels:
Type in all cases: cell-based
hT2R54 = target: T1, hT2R54 (Homo sapiens, UniProt P59534); test: calcium imaging of HEK293 cells transfected with hT2R54 and chimeric G protein G16gust44; conditions: for response of HEK-293 cells that express hT2R54: 2 mM concentrations, FIG. 3; for response of hT2R54 (increase in intracellular calcium concentration): different concentrations, FIG. 2 / FIG. 4
T1 construct: expressed in transfected cells; host or cells: human embryonic kidney (HEK293) cells, transient transfection
T1 sequence (P59534 18-338): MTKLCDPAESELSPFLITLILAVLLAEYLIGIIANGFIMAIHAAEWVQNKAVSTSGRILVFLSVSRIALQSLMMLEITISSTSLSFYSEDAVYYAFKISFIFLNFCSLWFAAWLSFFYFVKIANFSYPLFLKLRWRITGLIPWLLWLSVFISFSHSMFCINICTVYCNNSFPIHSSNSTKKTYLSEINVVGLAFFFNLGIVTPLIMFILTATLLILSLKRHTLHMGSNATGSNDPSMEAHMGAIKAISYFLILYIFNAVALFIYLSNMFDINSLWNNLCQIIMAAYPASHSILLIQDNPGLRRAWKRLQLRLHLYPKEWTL
Experimental: (§1) More particularly, the present inventors transfected HEK293 cells with a particular hT2R together with a chimeric G protein (G 16gust44) which comprises the Gα16 G protein sequence modified by the replacement of carboxy-44 amino acid residues with those of gustducin, and recorded responses of these cells to specific bitter ligands by calcium imaging methods.
(§2) Activation of these receptors by 3CoQAL is measured in a cell-based assay detecting changes in intracellular calcium concentration. In brief, human embryonic kidney cells are seeded in 48-well tissue culture plates. 24 hours later, the cells are transiently transfected with plasmid containing either the hT2R8, hT2R14 or hT2R54 nucleic acid sequence, and plasmid containing a chimeric G protein (G16gust44). Another 24 hours later, the cells are incubated with a fluorescent dye specific for calcium (Fluo-4 or Fura-2; Molecular Probes) that provides a fast, simple and reliable fluorescence-based method for detecting changes in calcium concentration inside the cell. Activation of the T2Rs elicits a signaling cascade leading to the activation of PLC and a subsequent increase in intracellular calcium concentration. This increase in calcium concentration changes the fluorescence properties of the calcium dye inside the cells. These changes are monitored using fluorescence microscopy and a specific design software (Imaging Workbench, Axon).
as §2, with “this receptor” for “these receptors”, “3CQAL and 4CQAL” for “3CoQAL”
as §2, with “this receptor” for “these receptors”, “4FQAL” for “3CoQAL”, “brief” for “brief,”

hT2R14 = target: T2, hT2R14 (Homo sapiens, UniProt Q9NYV8); test: calcium imaging of HEK293 cells transfected with hT2R14 and chimeric G protein G16gust44; conditions: for response of HEK-293 cells that express hT2R14: 2 mM concentrations, FIG. 3; for response of hT2R14 (increase in intracellular calcium concentration): different concentrations, FIG. 2
T2 construct: expressed in transfected cells; host or cells: human embryonic kidney (HEK293) cells, transient transfection
T2 sequence (Q9NYV8 1-317): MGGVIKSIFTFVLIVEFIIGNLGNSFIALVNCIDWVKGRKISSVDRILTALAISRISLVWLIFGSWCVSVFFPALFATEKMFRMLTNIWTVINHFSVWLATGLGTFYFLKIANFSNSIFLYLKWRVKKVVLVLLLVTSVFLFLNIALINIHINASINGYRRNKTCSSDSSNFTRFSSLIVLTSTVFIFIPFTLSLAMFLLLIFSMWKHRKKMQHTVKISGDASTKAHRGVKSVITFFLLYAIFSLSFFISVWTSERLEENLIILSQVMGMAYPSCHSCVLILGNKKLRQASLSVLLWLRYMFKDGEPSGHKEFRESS
Experimental: as §1, §2
as §2, with “this receptor” for “these receptors”, “3CQAL and 4CQAL” for “3CoQAL”
as §2, with “this receptor” for “these receptors”, “4FQAL” for “3CoQAL”, “brief” for “brief,”

hT2R8 = target: T3, hT2R8 (Homo sapiens, UniProt Q9NYW2); test: calcium imaging of HEK293 cells transfected with hT2R8 and chimeric G protein G16gust44; conditions: for response of HEK-293 cells that express hT2R8: 2 mM concentrations, FIG. 3; for response of hT2R8 (increase in intracellular calcium concentration): different concentrations, FIG. 2 / FIG. 4
T3 construct: expressed in transfected cells; host or cells: human embryonic kidney (HEK293) cells, transient transfection
T3 sequence (Q9NYW2 1-309): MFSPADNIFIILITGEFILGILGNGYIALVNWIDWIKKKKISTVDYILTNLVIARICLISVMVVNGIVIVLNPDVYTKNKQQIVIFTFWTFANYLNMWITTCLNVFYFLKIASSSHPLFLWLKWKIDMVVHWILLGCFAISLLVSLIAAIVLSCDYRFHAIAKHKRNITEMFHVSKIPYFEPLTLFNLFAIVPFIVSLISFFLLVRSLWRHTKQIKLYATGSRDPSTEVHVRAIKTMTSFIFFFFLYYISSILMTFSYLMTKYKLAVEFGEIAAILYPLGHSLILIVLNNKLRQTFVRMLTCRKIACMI
Experimental: as §1, §2
as §2, with “this receptor” for “these receptors”, “3CQAL and 4CQAL” for “3CoQAL”
as §2, with “this receptor” for “these receptors”, “4FQAL” for “3CoQAL”, “brief” for “brief,”

O=C(C=Cc1ccc(O)c(O)c1)OC1C(O)CC2(O)CC1OC2=O (stereo not drawn) [4CQAL]
response of HEK-293 cells that express hT2R54 (hT2R54): specifically respond
response of HEK-293 cells that express hT2R14 (hT2R14): specifically respond
response of HEK-293 cells that express hT2R8 (hT2R8): specifically respond

O=C(C=Cc1ccc(O)cc1)OC1CC2(O)CC(OC2=O)C1O (stereo not drawn) [3CoQAL]
response of hT2R54 (increase in intracellular calcium concentration) (hT2R54): responded
response of hT2R14 (increase in intracellular calcium concentration) (hT2R14): responded
response of hT2R8 (increase in intracellular calcium concentration) (hT2R8): responded

O=C(/C=C/c1ccc(O)c(O)c1)O[C@@H]1C[C@]2(O)C[C@@H](OC2=O)[C@@H]1O [3CQAL]
response of HEK-293 cells that express hT2R54 (hT2R54): specifically respond
response of HEK-293 cells that express hT2R14 (hT2R14): specifically respond
response of HEK-293 cells that express hT2R8 (hT2R8): specifically respond

COc1cc(/C=C/C(=O)O[C@@H]2[C@H](O)C[C@]3(O)C[C@H]2OC3=O)ccc1O [4FQAL]
response of hT2R54 (increase in intracellular calcium concentration) (hT2R54): responded specifically
response of hT2R14 (increase in intracellular calcium concentration) (hT2R14): specifically activate
response of hT2R8 (increase in intracellular calcium concentration) (hT2R8): responded specifically

OC[C@H]1O[C@@](CO)(O[C@H]2O[C@H](CO)[C@@H](O)[C@H](O)[C@H]2O)[C@@H](O)[C@@H]1O [sucrose]
response of HEK-293 cells that express hT2R54 (hT2R54): do not respond
response of hT2R54 (increase in intracellular calcium concentration) (hT2R54): do not respond
response of HEK-293 cells that express hT2R14 (hT2R14): do not respond
response of hT2R14 (increase in intracellular calcium concentration) (hT2R14): do not respond
response of HEK-293 cells that express hT2R8 (hT2R8): do not respond
response of hT2R8 (increase in intracellular calcium concentration) (hT2R8): do not respond
